{"source": "patent US20060205949A1", "about": "“Crystalline forms of a biphenyl compound” (THERAVANCE, INC., priority 2005, published 2006)", "molecular_target": "T1, hM3 receptor (CHO cells) (Homo sapiens, UniProt P20309)", "T1 construct": "expressed in transfected cells", "T1 sequence (P20309 whole entry)": "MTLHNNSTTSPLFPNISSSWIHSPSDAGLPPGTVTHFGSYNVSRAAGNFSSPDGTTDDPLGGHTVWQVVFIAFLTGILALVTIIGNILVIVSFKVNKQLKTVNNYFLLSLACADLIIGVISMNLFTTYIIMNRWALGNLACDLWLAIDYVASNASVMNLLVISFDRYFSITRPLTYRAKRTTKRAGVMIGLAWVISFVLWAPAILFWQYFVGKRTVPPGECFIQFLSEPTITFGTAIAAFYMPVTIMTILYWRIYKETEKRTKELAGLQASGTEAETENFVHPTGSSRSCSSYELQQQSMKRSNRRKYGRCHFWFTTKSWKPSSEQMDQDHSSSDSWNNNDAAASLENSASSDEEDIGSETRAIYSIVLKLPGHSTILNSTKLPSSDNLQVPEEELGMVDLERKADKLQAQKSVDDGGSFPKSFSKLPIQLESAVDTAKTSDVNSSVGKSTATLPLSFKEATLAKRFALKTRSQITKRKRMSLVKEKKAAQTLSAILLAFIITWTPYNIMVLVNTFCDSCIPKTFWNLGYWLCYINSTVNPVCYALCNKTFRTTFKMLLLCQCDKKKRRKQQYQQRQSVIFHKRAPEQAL", "experiment": "Blockade of agonist-mediated calcium release via FLIPR", "assay_type": "cell-based", "settings": "CHO cells stably expressing the hM3 receptor, this or a similar assay", "text": "Muscarinic receptor subtypes (M1, M3 and M5 receptors), which couple to Gq proteins, activate the phospholipase C (PLC) pathway upon agonist binding to the receptor. As a result, activated PLC hydrolyzes phosphatyl inositol diphosphate (PIP2) to diacylglycerol (DAG) and […] (IP3), which in turn generates calcium release from intracellular stores, i.e., endoplasmic and sarcoplasmic reticulum. The FLIPR (Molecular Devices, Sunnyvale, Calif.) assay capitalizes on this increase in intracellular calcium by using a calcium sensitive dye (Fluo-4AM, Molecular Probes, Eugene, Oreg.) that fluoresces when free calcium binds. This fluorescence event was measured in real time by the FLIPR, which detected the change in fluorescence from a monolayer of cells cloned with human M1 and M3, and chimpanzee M5 receptors. Antagonist potency was determined by the ability of antagonists to inhibit agonist-mediated increases in intracellular calcium.\nFor FLIPR calcium stimulation assays, CHO cells stably expressing the hM1, hM3 and cM5 receptors were seeded into 96-well FLIPR plates the night before the assay was done. […]\nTo determine antagonist potency, the dose-dependent stimulation of intracellular Ca^2+ release for oxotremorine was first determined so that antagonist potency can later be measured against oxotremorine stimulation at an EC90 concentration. […]", "data": [{"compound": "O=C(CCN1CCC(OC(=O)Nc2ccccc2-c2ccccc2)CC1)NCCCCCNCc1ccc(O)cc1", "note": "[compound of formula I, biphenyl-2-ylcarbamic acid 1-{2-[5-(4-hydroxybenzylamino)pentylcarbamoyl]ethyl}piperidin-4-yl ester]", "values": [{"measurement": "Ki", "result": "< 10", "unit": "nM"}]}]}
